In patent publication US10829796B2, “Bacteria identification and antimicrobial susceptibility test” (priority 2015, dated 2020):

Test system: bacteria in clinical bovine mastitis milk samples
Assay: Combined bacteria identification and antimicrobial susceptibility test (colour of wells, MIC) on clinical bovine mastitis milk samples
Type: cell-based
Protocol: Clinical bovine mastitis milk samples were collected by a vet clinic in South Island, New Zealand. Samples were stored in the freezer for several months and shipped frozen to the testing facility. In this Example, the term “clinical” means that dairy cows had clinical symptoms of an udder infection e.g. cow behaved unusual, milk clots, swollen udder among other typical symptoms. Testing was executed in microwell plate comprising of 24 wells (3×8 wells).
In addition, 20 ul of clinical mastitis sample was added to each well with a laboratory pipette.
(§1) Abbreviations • 1. 80 ul GC+10 ul Tell: 80 ul Giolitti Cantoni base broth+10 ul Tellurite solution (1%); • 2. 80 ul TSB/Esc/Fer Cit: 80 ul Tryptic soy broth containing 0.25% Esculin and 0.125% Ammonium Ferric Citrate; • 3. 80 ul TSB/Esc/Fer Cit+10 ul Genta: 80 ul Tryptic soy broth containing 0.25% Esculin and 0.125% Ammonium Ferric Citrate+10 ul of Gentamycin solution 10 mg/ml; • 4. 80 ul McC/PR25: 80 ul MacConkey broth (single strength) containing 0.0125% phenol red; and • 5. 80 ul TSB/PR25: 80 ul Tryptic soy broth containing 0.0125% phenol red. Bacteria Identification
Columns A to C and rows 1 and 2 were used for bacteria identification. A1: coagulase positive Staph; A2: Staphylococci; B1: Strep group D; B2: Strep group D; C1: general enrichment media (gram+ and gram-bacteria); C2: coliform bacteria.
Column A3 to A8: serial dilution of benzyl penicillin as potassium. Column B3 to B8: serial dilution of ceftiofur as hydrochloride. Column C3 to C8: serial dilution of cloxacillin as sodium. Antibiotic concentrations are listed as free form ranging between 4 ug/ml to 0.05 ug/ml.
Minimum inhibitory substance concentration (MIC) is here defined as the concentration if a colour change occurs between two wells (one well remains red with drug concentration 1, the other one yellow with drug concentration 2, whereas drug concentration 1 is larger than drug concentration 2) then the MIC is the value of drug concentration 1.
Table 21 indicates the microwell plate configuration #1; Drugs: Benzylpenicillin as potassium; Cloxacillin as sodium; Ceftiofur as hydrochloride; Drug concentration in each well (A3 to C8) is based on 80 μl composition+10 μl drug solution+20 μl clinical mastitis milk sample and equivalent to listed drug concentration in μg/ml; 20 ul of clinical bovine mastitis milk sample was added to each well (A1 to C8).
In addition, each well received one drop of clinical sample from a transfer pipette which was on average about 35 mg. This was determined through weighing the well plate prior and after the addition of clinical mastitis samples. This weight was then divided by 24.
as §1, with “•” for “Abbreviations •”, “red.” for “red. Bacteria Identification”
Columns A to C and rows 1 and 2 were used for bacteria identification. A1: coagulase positive Staph; A2: Staphylococci; B1: Strep Group D; B2: -; C1: general enrichment media (gram+ and gram-); C2: coliform bacteria.
Column A3 to A8: serial dilution of benzyl penicillin as potassium. Drug concentrations given as free form ranging between 4 ug/ml to 0.05 ug/ml. Column B3 to B8: serial dilution of ceftiofur as hydrochloride. Drug concentrations given as free form ranging between 4 ug/ml to 0.05 ug/ml. Column C3 to C8: serial dilution of cloxacillin as sodium. Drug concentrations given as free form ranging between 4 ug/ml to 0.05 ug/ml.

CC1(C)S[C@@H]2[C@H](NC(=O)Cc3ccccc3)C(=O)N2[C@H]1C(=O)O [benzyl penicillin]
Colour of media in each well (ID 1, T = 22 h, 37° C., plate configuration #1, drug 0.05 μg/ml): orange | Colour of media in each well (ID 1, T = 22 h, 37° C., plate configuration #1, drug 0.1 μg/ml): red | Colour of media in each well (ID 1, T = 22 h, 37° C., plate configuration #1, drug 0.5 μg/ml): red | Colour of media in each well (ID 1, T = 22 h, 37° C., plate configuration #1, drug 1 μg/ml): red | Colour of media in each well (ID 1, T = 22 h, 37° C., plate configuration #1, drug 2 μg/ml): red | Colour of media in each well (ID 1, T = 22 h, 37° C., plate configuration #1, drug 4 μg/ml): red | Colour of media in each well (ID 2, T = 48 h, 37° C., plate configuration #1, drug 0.05 μg/ml): yellow | Colour of media in each well (ID 2, T = 48 h, 37° C., plate configuration #1, drug 0.1 μg/ml): yellow | Colour of media in each well (ID 2, T = 48 h, 37° C., plate configuration #1, drug 0.5 μg/ml): yellow | Colour of media in each well (ID 2, T = 48 h, 37° C., plate configuration #1, drug 1 μg/ml): yellow | Colour of media in each well (ID 2, T = 48 h, 37° C., plate configuration #1, drug 2 μg/ml): yellow | Colour of media in each well (ID 2, T = 48 h, 37° C., plate configuration #1, drug 4 μg/ml): yellow | Colour of media in each well (ID 3, T = 22 h, 37° C., plate configuration #1, drug 0.05 μg/ml): yellow | Colour of media in each well (ID 3, T = 22 h, 37° C., plate configuration #1, drug 0.1 μg/ml): yellow | Colour of media in each well (ID 3, T = 22 h, 37° C., plate configuration #1, drug 0.5 μg/ml): yellow | Colour of media in each well (ID 3, T = 22 h, 37° C., plate configuration #1, drug 1 μg/ml): yellow | Colour of media in each well (ID 3, T = 22 h, 37° C., plate configuration #1, drug 2 μg/ml): yellow | Colour of media in each well (ID 3, T = 22 h, 37° C., plate configuration #1, drug 4 μg/ml): yellow | Colour of media in each well (ID 3, T = 23 h, 37° C., Table 34, drug 0.05 μg/ml): yellow | Colour of media in each well (ID 3, T = 23 h, 37° C., Table 34, drug 0.1 μg/ml): yellow | Colour of media in each well (ID 3, T = 23 h, 37° C., Table 34, drug 0.5 μg/ml): yellow | Colour of media in each well (ID 3, T = 23 h, 37° C., Table 34, drug 1 μg/ml): yellow | Colour of media in each well (ID 3, T = 23 h, 37° C., Table 34, drug 2 μg/ml): yellow | Colour of media in each well (ID 3, T = 23 h, 37° C., Table 34, drug 4 μg/ml): yellow | Colour of media in each well (ID 3, T~7 h, 37° C., Table 34, drug 0.05 μg/ml): red | Colour of media in each well (ID 3, T~7 h, 37° C., Table 34, drug 0.1 μg/ml): red | Colour of media in each well (ID 3, T~7 h, 37° C., Table 34, drug 0.5 μg/ml): red | Colour of media in each well (ID 3, T~7 h, 37° C., Table 34, drug 1 μg/ml): red | Colour of media in each well (ID 3, T~7 h, 37° C., Table 34, drug 2 μg/ml): red | Colour of media in each well (ID 3, T~7 h, 37° C., Table 34, drug 4 μg/ml): red | Colour of media in each well (ID 3, T~11 h, 37° C., Table 34, drug 0.05 μg/ml): red | Colour of media in each well (ID 3, T~11 h, 37° C., Table 34, drug 0.1 μg/ml): red | Colour of media in each well (ID 3, T~11 h, 37° C., Table 34, drug 0.5 μg/ml): red | Colour of media in each well (ID 3, T~11 h, 37° C., Table 34, drug 1 μg/ml): red | Colour of media in each well (ID 3, T~11 h, 37° C., Table 34, drug 2 μg/ml): red | Colour of media in each well (ID 3, T~11 h, 37° C., Table 34, drug 4 μg/ml): red | Colour of media in each well (ID 4, T = 22 h, 37° C., plate configuration #1, drug 0.05 μg/ml): yellow | Colour of media in each well (ID 4, T = 22 h, 37° C., plate configuration #1, drug 0.1 μg/ml): yellow | Colour of media in each well (ID 4, T = 22 h, 37° C., plate configuration #1, drug 0.5 μg/ml): yellow | Colour of media in each well (ID 4, T = 22 h, 37° C., plate configuration #1, drug 1 μg/ml): orange | Colour of media in each well (ID 4, T = 22 h, 37° C., plate configuration #1, drug 2 μg/ml): orange | Colour of media in each well (ID 4, T = 22 h, 37° C., plate configuration #1, drug 4 μg/ml): yellow | Colour of media in each well (ID 5, T = 23 h, 37° C., plate configuration #2, drug 0.05 μg/ml): red | Colour of media in each well (ID 5, T = 23 h, 37° C., plate configuration #2, drug 0.1 μg/ml): red | Colour of media in each well (ID 5, T = 23 h, 37° C., plate configuration #2, drug 0.5 μg/ml): red | Colour of media in each well (ID 5, T = 23 h, 37° C., plate configuration #2, drug 1 μg/ml): red | Colour of media in each well (ID 5, T = 23 h, 37° C., plate configuration #2, drug 2 μg/ml): red | Colour of media in each well (ID 5, T = 23 h, 37° C., plate configuration #2, drug 4 μg/ml): red | Colour of media in each well (ID 5 to 8, T = 0 h (prior incubation, reference), plate configuration #2, drug 0.05 μg/ml): red | Colour of media in each well (ID 5 to 8, T = 0 h (prior incubation, reference), plate configuration #2, drug 0.1 μg/ml): red | Colour of media in each well (ID 5 to 8, T = 0 h (prior incubation, reference), plate configuration #2, drug 0.5 μg/ml): red
